Assay results published in patent US10722501B2 (BAYER AKTIENGESELLSCHAFT, priority 2016, dated 2020).

Molecular target: T1, recombinant full-length human prolyl endopeptidase (PREP) (Homo sapiens, UniProt P48147)
T1 construct: To recombinant full-length human prolyl endopeptidase (PREP, R&D-Systems, 4308-SE); purchased R&D-Systems 4308-SE
T1 sequence (P48147 1-710): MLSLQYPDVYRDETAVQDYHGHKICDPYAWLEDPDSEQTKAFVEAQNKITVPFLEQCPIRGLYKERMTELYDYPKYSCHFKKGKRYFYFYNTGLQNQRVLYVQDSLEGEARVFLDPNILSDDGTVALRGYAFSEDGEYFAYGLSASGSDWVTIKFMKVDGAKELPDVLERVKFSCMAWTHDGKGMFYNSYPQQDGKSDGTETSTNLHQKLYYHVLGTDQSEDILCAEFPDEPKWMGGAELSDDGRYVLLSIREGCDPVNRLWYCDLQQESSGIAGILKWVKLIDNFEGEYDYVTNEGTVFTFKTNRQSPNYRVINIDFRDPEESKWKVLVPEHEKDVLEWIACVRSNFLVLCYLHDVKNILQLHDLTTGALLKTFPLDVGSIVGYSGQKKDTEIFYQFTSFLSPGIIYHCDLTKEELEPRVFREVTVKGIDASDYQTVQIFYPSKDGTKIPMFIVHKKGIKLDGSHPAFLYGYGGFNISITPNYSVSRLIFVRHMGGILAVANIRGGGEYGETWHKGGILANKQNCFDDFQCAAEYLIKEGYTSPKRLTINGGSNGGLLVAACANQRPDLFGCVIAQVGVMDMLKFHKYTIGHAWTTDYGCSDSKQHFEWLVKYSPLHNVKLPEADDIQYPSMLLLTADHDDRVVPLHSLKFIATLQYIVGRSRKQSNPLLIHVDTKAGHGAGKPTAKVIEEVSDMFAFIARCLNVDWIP
Experiment: Biochemical human prolyl endopeptidase (PREP) assay with fluorescently labelled substrate
Conditions: substrate Z-Gly-Pro-AMC 50 μM, 32° C., 60 min; some as mean values from multiple independent determinations
Method in brief: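 Initial rates of fluorescence increase from 50 μM Z-Gly-Pro-AMC cleavage (ex 360/em 465 nm, 60 min, 32° C) give percent PREP activity versus no-compound control, and IC50 is interpolated. Enzyme used at 0.4 nM (final, example) in Tris pH 7.5 with EDTA, GSH, BSA and Brij-35; compounds span 1 nM to 30 μM.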

Compound	IC50
CC1Cc2nn(Cc3ccc(C(F)(F)F)nc3)c(=O)n2C(C(=O)N2CC[C@H](F)C2)C1 (single isomer, unassigned) [Example 137]	130 nM
O=C([C@@H]1CCCc2nn(Cc3ccc(C(F)(F)F)nc3)c(=O)n21)N1CC(O)C1 [Example 428, (5S)-5-[(3-Hydroxyazetidin-1-yl)carbonyl]-2-{[6-(trifluoromethyl)pyridin-3-yl]methyl}-5,6,7,8-tetrahydro[1,2,4]triazolo[4,3-a]pyridin-3(2H)-one]	53 nM
COc1ccc(Cn2nc3n(c2=O)[C@H](C(=O)N2CCC(F)(F)C2)CCC3)cn1 [Example 434, (5S)-5-[(3,3-Difluoropyrrolidin-1-yl)carbonyl]-2-[(6-methoxypyridin-3-yl)methyl]-5,6,7,8-tetrahydro[1,2,4]triazolo[4,3-a]pyridin-3(2H)-one]	2.4 nM
CC(c1ccc(Cl)cc1)n1nc2n(c1=O)C(C(=O)N1CCCC1)CCC2 (racemic) [Example 3, (5RS)-2-[(1 RS)-1-(4-Chlorophenyl)ethyl]-5-(pyrrolidin-1-ylcarbonyl)-5,6,7,8-tetrahydro[1,2,4]triazolo[4,3-a]pyridin-3(2H)-one]	6 nM
O=C([C@@H]1CCCc2nn(Cc3ccc(F)cc3F)c(=O)n21)N1CC[C@H](F)C1 [Example 488, (5S)-2-(2,4-Difluorobenzyl)-5-{[(3S)-3-fluoropyrrolidin-1-yl]carbonyl}-5,6,7,8-tetrahydro[1,2,4]triazolo[4,3-a]pyridin-3(2H)-one]	0.15 nM
CC1CCC(C(=O)N2CCC(F)(F)C2)n2c1nn(Cc1ccc(F)c(Cl)c1)c2=O (racemic) [Example 323, (5RS,8RS)-2-(3-Chloro-4-fluorobenzyl)-5-[(3,3-difluoropyrrolidin-1-yl)carbonyl]-8-methyl-5,6,7,8-tetrahydro[1,2,4]triazolo[4,3-a]pyridin-3(2H)-one]	0.96 nM
O=C([C@@H]1CCCc2nn(Cc3cc(F)c(F)cc3F)c(=O)n21)N1CCC(F)(F)C1 [Example 490, (5S)-5-[(3,3-Difluoropyrrolidin-1-yl)carbonyl]-2-(2,4,5-trifluorobenzyl)-5,6,7,8-tetrahydro[1,2,4]triazolo[4,3-a]pyridin-3(2H)-one]	0.38 nM
O=C([C@@H]1CCCc2nn(CC3CCC(C(F)(F)F)CC3)c(=O)n21)N1CCCC1 (single isomer, unassigned) [Example 186]	1.25 nM
CC(c1ccc(Cl)cc1)n1nc2n(c1=O)C(C(=O)N1CCCC1)CCC2 (single isomer, unassigned) [Example 5, (5RS)-2-[(1 RS)-1-(4-Chlorophenyl)ethyl]-5-(pyrrolidin-1-ylcarbonyl)-5,6,7,8-tetrahydro[1,2,4]triazolo[4,3-a]pyridin-3(2H)-one]	8 nM
O=C(C1CCC(C(F)(F)F)c2nn(Cc3ccc(C(F)(F)F)nc3)c(=O)n21)N1CC[C@H](F)C1 (single isomer, unassigned) [Example 272]	0.695 nM
O=C([C@@H]1CCCc2nn(Cc3cc(C(F)(F)F)c(Cl)cn3)c(=O)n21)N1CC[C@H](F)C1 [Example 376, (5S)-2-{[5-Chloro-4-(trifluoromethyl)pyridin-2-yl]methyl}-5-{[(3S)-3-fluoropyrrolidin-1-yl]carbonyl}-5,6,7,8-tetrahydro[1,2,4]triazolo[4,3-a]pyridin-3(2H)-one]	0.41 nM
CC1Cc2nn(Cc3ccnc(C(F)(F)F)c3F)c(=O)n2C(C(=O)N2CCC(F)(F)C2)C1 (racemic) [Example 334, (5RS,7RS)-5-[(3,3-Difluoropyrrolidin-1-yl)carbonyl]-2-{[3-fluoro-2-(trifluoromethyl)pyridin-4-yl]methyl}-7-methyl-5,6,7,8-tetrahydro[1,2,4]triazolo[4,3-a]pyridin-3(2H)-one]	2.95 nM
O=C([C@@H]1CCCc2nn(Cc3ccnc(C(F)(F)F)c3F)c(=O)n21)N1CCCC1 [Example 75, (5S)-2-{[3-Fluoro-2-(trifluoromethyl)pyridin-4-yl]methyl}-5-(pyrrolidin-1-ylcarbonyl)-5,6,7,8-tetrahydro[1,2,4]triazolo[4,3-a]pyridin-3(2H)-one]	1.1 nM
O=C([C@@H]1CCCc2nn(Cc3cccc(C(F)(F)F)c3)c(=O)n21)N1C[C@@H](F)[C@@H](F)C1 [Example 445, (5S)-5-{[(3R,4S)-3,4-Difluoropyrrolidin-1-yl]carbonyl}-2-[3-(trifluoromethyl)benzyl]-5,6,7,8-tetrahydro[1,2,4]triazolo[4,3-a]pyridin-3(2H)-one]	0.76 nM
O=C([C@@H]1CCCc2nn(Cc3cncc(C(F)(F)F)c3)c(=O)n21)N1CC[C@H](F)C1 [Example 515, (5S)-5-{[(3S)-3-Fluoropyrrolidin-1-yl]carbonyl}-2-{[5-(trifluoromethyl)pyridin-3-yl]methyl}-5,6,7,8-tetrahydro[1,2,4]triazolo[4,3-a]pyridin-3(2H)-one]	0.59 nM
CC(c1ccc(C(F)(F)F)nc1)n1nc2n(c1=O)[C@H](C(=O)N1CC[C@H](F)C1)CCC2 (single isomer, unassigned) [Example 217]	1.2 nM

Continued by falling IC50, values first:

IC50	Compound
790 nM	O=C(C1CC(C(F)(F)F)Cc2nn(Cc3ccnc(C(F)(F)F)c3F)c(=O)n21)N1C[C@@H](F)[C@@H](F)C1 (single isomer, unassigned) [Example 262]
39 nM	Cc1noc(-c2ccc(Cn3nc4n(c3=O)C(C(=O)N3CCCC3)CCC4)cc2)n1 (racemic) [Example 9, (5RS)-2-[4-(3-Methyl-1,2,4-oxadiazol-5-yl)benzyl]-5-(pyrrolidin-1-ylcarbonyl)-5,6,7,8-tetrahydro[1,2,4]triazolo[4,3-a]pyridin-3(2H)-one]
30.5 nM	O=C(C1CC(C(F)(F)F)Cc2nn(Cc3ccnc(C(F)(F)F)c3F)c(=O)n21)N1CC(F)C1 (single isomer, unassigned) [Example 254, (5RS,7RS)-5-[(3-Fluoroazetidin-1-yl)carbonyl]-2-{[3-fluoro-2-(trifluoromethyl)pyridin-4-yl]methyl}-7-(trifluoromethyl)-5,6,7,8-tetrahydro[1,2,4]triazolo[4,3-a]pyridin-3(2H)-one]
25 nM	O=C([C@@H]1CCCc2nn(Cc3ccnc(C(F)(F)F)c3F)c(=O)n21)N1CC[C@H](O)C1 [Example 479, (5S)-2-{[3-Fluoro-2-(trifluoromethyl)pyridin-4-yl]methyl}-5-{[(3S)-3-hydroxypyrrolidin-1-yl]carbonyl}-5,6,7,8-tetrahydro[1,2,4]triazolo[4,3-a]pyridin-3(2H)-one]
16.5 nM	O=C([C@@H]1CCCc2nn(Cc3cc(C(F)(F)F)nc4ccccc34)c(=O)n21)N1CC(O)C1 [Example 495, (5S)-5-[(3-Hydroxyazetidin-1-yl)carbonyl]-2-{[2-(trifluoromethyl)quinolin-4-yl]methyl}-5,6,7,8-tetrahydro[1,2,4]triazolo[4,3-a]pyridin-3(2H)-one]
4.1 nM	CC1CCC(C(=O)N2CC(F)C2)n2c1nn(Cc1ccc(C(F)(F)F)nc1)c2=O (racemic) [Example 328, (5RS,8RS)-5-[(3-Fluoroazetidin-1-yl)carbonyl]-8-methyl-2-{[6-(trifluoromethyl)pyridin-3-yl]methyl}-5,6,7,8-tetrahydro[1,2,4]triazolo[4,3-a]pyridin-3(2H)-one]
3.4 nM	O=C(C1CC(C(F)(F)F)Cc2nn(Cc3ccnc(C(F)(F)F)c3F)c(=O)n21)N1CCC(F)(F)C1 (racemic) [Example 251, (5RS,7RS)-5-[(3,3-Difluoropyrrolidin-1-yl)carbonyl]-2-{[3-fluoro-2-(trifluoromethyl)pyridin-4-yl]methyl}-7-(trifluoromethyl)-5,6,7,8-tetrahydro[1,2,4]triazolo[4,3-a]pyridin-3(2H)-one]
1.7 nM	O=C([C@@H]1CCCc2nn(Cc3cc4cccnc4nc3C(F)(F)F)c(=O)n21)N1CC(F)C1 [Example 420, (5S)-5-[(3-Fluoroazetidin-1-yl)carbonyl]-2-{[2-(trifluoromethyl)-1,8-naphthyridin-3-yl]methyl}-5,6,7,8-tetrahydro[1,2,4]triazolo[4,3-a]pyridin-3(2H)-one]
1.32 nM	O=C([C@@H]1CCCc2nn(Cc3ccc(F)c(Cl)c3)c(=O)n21)N1CC(F)C1 [Example 457, (5S)-2-(3-Chloro-4-fluorobenzyl)-5-[(3-fluoroazetidin-1-yl)carbonyl]-5,6,7,8-tetrahydro[1,2,4]triazolo[4,3-a]pyridin-3(2H)-one]
0.455 nM	O=C([C@@H]1CCCc2nn(Cc3ncc(Cl)cc3Cl)c(=O)n21)N1C[C@@H](F)[C@@H](F)C1 [Example 400, (5S)-2-[(3,5-Dichloropyridin-2-yl)methyl]-5-{[(3R,4S)-3,4-difluoropyrrolidin-1-yl]carbonyl}-5,6,7,8-tetrahydro[1,2,4]triazolo[4,3-a]pyridin-3(2H)-one]
